Source: patent US20180206499A1, “METHOD OF IMPROVING PLANT HEALTH AND ROOTING OF PLANTS” (Bayer CropScience LP, priority 2017, published 2018)

How the values were obtained:
Type in all cases: in vivo
[1] = system: Shortleaf pine (P. echinata); assay: Pinus echinata seed pot test, soil sprayed with indaziflam composition; details: soil spray; for root weight: untreated root approx. 0.05 grams; for shoot weight: untreated shoot approx. 0.10 grams
Method: Shortleaf pine (P. echinata) seeds were soaked in water for 24 hours and then placed in cold storage in a punctured bag for four weeks.
(§1) 20 seeds were placed in pots on soil surface and topdressed with one cup of sandy loam soil, about ⅛″ to ¼″ deep. The pots were irrigated and allowed to settle for 24 hours.
The soil was sprayed with a commercially available composition comprising indaziflam (commercial name […]) using a single nozzle with a compressed CO2 backpack set at 32 psi for 25 gallons per acre. Overhead irrigation was set for twice daily.

Loblolly pine (P. taeda) = assay: Pinus taeda seed pot test, soil sprayed with indaziflam composition; details: Esplanade 200SC soil spray; for root weight: untreated root approx. 0.06 grams; for shoot weight: untreated shoot approx. 0.19 grams
Method: Loblolly pine (P. taeda) seeds were soaked in water for 24 hours and then placed in cold storage in a punctured bag for four weeks.
as §1
(§2) The soil was sprayed with a commercially available composition comprising indaziflam (commercial name Esplanade 200SC) using a single nozzle with a compressed CO2 backpack set at 32 psi for 25 gallons per acre. Overhead irrigation was set for twice daily.

[2] = system: Virginia pine (P. virginiana); assay: Pinus virginiana seed pot test, soil sprayed with indaziflam composition; details: Esplanade 200SC soil spray; for root weight: untreated root approx. 0.05 grams; for shoot weight: untreated shoot approx. 0.11 grams
Method: Virginia pine (P. virginiana) seeds were soaked in water for 24 hours and then placed in cold storage in a punctured bag for four weeks.
as §1, §2

Question: Which results are given for Cc1ccc2c(c1)[C@H](Nc1nc(N)nc(C(C)F)n1)[C@@H](C)C2 (mixture of isomers) [indaziflam, N2[(1R,2S)-2,3-dihydro-2,6-dimethyl-1H-inden-1-yl]-6-[(1RS)-1-fluoroethyl]-1,3,5-triazine-2,4-diamine]?
Answer: root weight ([1]; 50 g indaziflam per hectare): approximately 0.13 grams; shoot weight ([1]; 50 g indaziflam per hectare): approximately 0.34 grams; root weight ([1]; 71.4 g indaziflam per hectare): approximately 0.27 grams; shoot weight ([1]; 71.4 g indaziflam per hectare): approximately 0.40 grams; root weight ([1]; 100 g indaziflam per hectare): approximately 0.22 grams; shoot weight ([1]; 100 g indaziflam per hectare): approximately 0.24 grams; root weight (Loblolly pine (P. taeda); 50 g indaziflam per hectare): approximately 0.15 grams; shoot weight (Loblolly pine (P. taeda); 50 g indaziflam per hectare): approximately 0.30 grams; root weight (Loblolly pine (P. taeda); 71.4 g indaziflam per hectare): approximately 0.25 grams; shoot weight (Loblolly pine (P. taeda); 71.4 g indaziflam per hectare): approximately 0.50 grams; root weight (Loblolly pine (P. taeda); 100 g indaziflam per hectare): approximately 0.14 grams; shoot weight (Loblolly pine (P. taeda); 100 g indaziflam per hectare): approximately 0.22 grams; root weight ([2]; 50 g indaziflam per hectare): approximately 0.14 grams; shoot weight ([2]; 50 g indaziflam per hectare): approximately 0.23 grams; root weight ([2]; 71.4 g indaziflam per hectare): approximately 0.27 grams; shoot weight ([2]; 71.4 g indaziflam per hectare): approximately 0.41 grams; root weight ([2]; 100 g indaziflam per hectare): approximately 0.22 grams
